The record followed here is patent publication US4122184A, “Benzimidazole insecticides” (priority 1977, dated 1978).

Holding throughout (assay type): in vivo
One series deals with Buffalo Tree Hopper. Briefly: Field trial (first summer), contact. The note with it: 125 ppm.
The test system of a further series is Tussock Moth. The series is described as follows: Field trial (first summer), contact. The conditions noted are these: 750 ppm.
Another series deals with Fall Webworm. Briefly: Field trial, stomach poison test. The procedure, abridged: (§1)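 Leaves from infested host plants were sprayed (atomizer, 10 psi) or dipped in compound solutions at several concentrations, air-dried, then placed in Petri dishes with five or ten insects each. One or two replicates, usually two or three rates; mortality read at 24, 48 and 72 h on a 0–9 scale.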

A further series deals with Asparagus Beetles Larvae. Briefly: Field trial, stomach poison test. Put shortly:
as §1

The next series is described as follows: Acute dermal toxicity. The conditions noted are these: rabbit. The source says: While the compounds of this invention resemble the organic phosphates in being toxic upon ingestion, they differ from the organic phosphates in having a low toxicity when applied to the skin. The following charts give the estimated acute oral and acute dermal toxicities of 2,6-bis(trifluoromethyl)-4-nitrobenzimidazole in several species of mammals.

The next series relates to Cabbage Looper. The series is described as follows: Field trial (first summer), stomach. The conditions noted are these: 500 ppm.
The subject of a further series is Variegated Cutworm. Briefly: Field trial (first summer), stomach. The conditions noted are these: 500 ppm.

In the case of `O=[N+]([O-])c1cc(C(F)(F)F)cc2nc(C(F)(F)F)[nH]c12` [A, 2,6-bis(trifluoromethyl)-4-nitrobenzimidazole], the insect mortality rating with Buffalo Tree Hopper is given as 9 (91-100 percent mortality); in the series with Tussock Moth, 9 (91-100 percent mortality); with Cabbage Looper, 9 (91-100 percent mortality); in the series with Variegated Cutworm, 5. The average mortality rating in the series with Fall Webworm (250 ppm) was 9 (91-100 percent mortality); in the series with Fall Webworm (500 ppm), 0 (0-10 percent); in the series with Fall Webworm (750 ppm), 0 (0-10 percent); in the series with Fall Webworm (1000 ppm), 0 (0-10 percent); with Asparagus Beetles Larvae (5 ppm), 3; in the series on Asparagus Beetles Larvae (10 ppm) it was 7. The average mortality rating in the series on Asparagus Beetles Larvae (25 ppm) came out at 7. Besides, the LD50 (commonly the dose expected to kill half of the subjects tested) in the series “Acute dermal toxicity” (in vivo, topical or ocular, male, read-out: Est. LD50) is above 500 mg/kg. Further, the “Est. LD50” value in “Acute dermal toxicity” (female) is above 500 mg/kg.
